Results taken from paper PMC6063448, “Antimicrobial activity of linear lipopeptides derived from BP100 towards plant pathogens” (PLoS ONE, 2018).

Key:
[1] = tested on: defense-related genes in tomato plants; assay: Induction of defense gene expression of tomato plants (RT-qPCR); type: in vivo, tomato cv. Rio Grande; details: for BCB gene expression, fold induction / ERT3 gene expression, fold induction / GluA gene expression, fold induction / Harp gene expression, fold induction / LOX gene expression, fold induction / Osm2 gene expression, fold induction / PPO gene expression, fold induction / PR1 gene expression, fold induction / PinII gene expression, fold induction / Sub1 gene expression, fold induction / Tas14 gene expression, fold induction: tomato leaves sprayed, 24 h, peptides and flg15 125 μM, JA 2.5 mM, ASM 300 mg/L, ΔΔCt relative to actin, above 2 = overexpression; for Number of defense-related genes significantly induced / Defense gene expression in tomato plants (genes overexpressed): treatment at 125 μM; for Defense gene expression in tomato plants (genes overexpressed): significant overexpression (REST2009)
Procedure: Seeds of tomato cv. Rio Grande plants were sown in hydroponic seed plugs (rockwool), germinated and grown under controlled greenhouse conditions (25 ± 2°C, 16 h light / 15 ± 2°C, 8 h dark, and 60% RH). Two-week old seedlings (two cotyledons) were transplanted into rockwool plugs (7.5×7.5×6.5 cm, Grodan Iberica). The experimental design consisted of three replicates of three plants per treatment. After two weeks, tomato leaves were sprayed with aqueous solutions of BP100, 9 selected derivatives and flg15 at 125 μM, jasmonic acid at 2.5 mM (Sigma-Aldrich, Sant Louis, Missouri, UE), and acybenzolar-S-methyl at 300 mg/L (Syngenta, Basel, Switzerland), until the run-off point. Water-sprayed plants were used as not treated controls. Twenty-four hours after product application leaf samples were collected and processed to extract RNA for RT-qPCR assays. Plant material was ground to a fine powder in liquid nitrogen with the Tissuelyzer II system (Qiagen). Total RNA was extracted from leaves using PureLink Plant RNA Reagent (Invitrogen, Life Technologies) according to the manufacturer’s manual. The RNA was solubilized in RNAse free water and was routinely subjected to DNAse treatment (Ambion® Turbo DNA-free™, Life Technologies) to remove any contaminant DNA. In each step, the RNA was quantified using a Nanodrop N-2000 spectrophotometer, and its integrity verified by denaturing agarose gel electrophoresis. First-strand of complementary DNA (cDNA) was generated from leave RNA using reverse transcriptase (High Capacity cDNA Reverse Transcription Kit, Invitrogen) according to the manufacturer’s manual.
To test gene defense induction in the treated tomato plants, a qPCR assay was performed. Quantitative PCR was carried out in a fluorometric thermal cycler (qPCR Quant Studio 5, Applied Biosystems) by using a Mix SYBR®Green PCR Master Mix (Applied Biosystems). The total reaction volume of this PCR reaction was 20 μL and the reaction mixture was 1 μL of each primer set at the adequate concentration, 10 μL of MixSyber Green, 6 μL of distilled water and 2 μL of cDNA. Melting curve analysis was performed after amplification to verify amplification specificity. A constitutive gene (actin gene) was used as reference control, and the following genes implicated in plant defense response were analyzed: Pathogenesis-related protein-1 (PR1), Harpin (Harp), Polyphenol oxidase (PPO), Subtilisin-like protease (Sub1), Blue copper binding-protein (BCB), Osmotin (Osm2), Acidic β-1,3 endoglucanase (GluA), Lypoxigenase (LOX), Protein inhibitor II (PinII), Dehydrin (Tas14) and Ethylene response transcription factor (ERT3). […] For each gene system, the concentration of the primer pair was optimized. The primer concentration was 100 nM for all the genes except for the GluA, Harp, PR1 and actin genes which optimized concentration was 300 nM. A calibration curve was prepared by cloning the corresponding DNA in the pSpark cloning vector (Canvax, Córdoba, Spain) according to the manufacturer instructions, which was then used to transform E. coli DH5α by standard procedures. The number of plasmid copies were quantified after purification from E. coli (QIAGEN Iberia, S. L., Madrid, Spain), and appropriate dilutions were prepared to obtain the standard curve. […] Relative quantification of gene expression was done using the ΔΔCt method. Each biological repetition treatment was analyzed in duplicate. The mean of the Ct values obtained were used to estimate the fold change value of the endogenous reference gene (actin) and the target plant defense genes.

proteinase K = tested on: T1, proteinase K; assay: Susceptibility to protease degradation; type: in vitro ADME; details: proteinase K (isolated protease) in TRIS buffer; 50 μg/mL peptide, 1 μg/mL proteinase K, 100 mM TRIS buffer pH 7.6, 25°C, 60 min; decrease of HPLC peak area (220 nm); read-out: Digestion with proteinase K (percentage of degraded peptide)
T1 construct: purchased Sigma-Aldrich Corporation, Spain
Procedure: Digestion of BP100 and of 16 selected lipopeptides was carried out by treating 50 μg/mL peptide with 1 μg/mL proteinase K (Sigma-Aldrich Corporation, Spain) in 100 mM TRIS buffer, pH 7.6, at 25°C. The peptide cleavage after 60 min was determined by HPLC using a Kromasil (4.6 × 40 mm; 3 μm particle size) C18 reverse-phase column. Linear gradients of 0.1% aqueous TFA and 0.1% TFA in CH3CN were run from 0.98:0.02 to 0:1 over 12 min with UV detection at 220 nm. Digestion was estimated as the percentage of degraded lipopeptide calculated from the decrease of the HPLC peak area of the native peptide.

tobacco leaves = assay: Effect of peptide infiltration on tobacco leaves; type: in vivo; details: for Size of the lesions in infiltrated tobacco leaves (diameter): 250 μM, 100 μL infiltrated into mesophyll, measured after 48 h
Procedure: BP100 and the 36 lipopeptides were evaluated for their effect upon infiltration on tobacco leaves as described previously. Peptide solutions of 50, 150 and 250 μM were infiltrated (100 μL) into the mesophylls of fully expanded tobacco leaves. Infiltrations were carried out in a single leaf, and for each peptide and dose, at least three leaves randomly distributed in different plants were inoculated. Control infiltrations with water (negative control) or melittin (positive control) at the same molar concentration were performed. The appearance of symptoms on the leaves was followed for 48 h after infiltration and measured as a lesion diameter.

For `CCCCCC(=O)NCCCC[C@H](NC(=O)[C@H](Cc1ccc(O)cc1)NC(=O)[C@H](CCCCN)NC(=O)[C@H](CC(C)C)NC(=O)[C@@H](NC(=O)[C@H](CCCCN)NC(=O)[C@H](CCCCN)NC(=O)[C@H](Cc1ccccc1)NC(=O)[C@H](CC(C)C)NC(=O)[C@H](CCCCN)NC(=O)[C@H](CCCCN)NC(C)=O)[C@@H](C)CC)C(N)=O` [BP378, Ac-KKLFKKILKYK(COC5H11)-NH2], the “BCB gene expression, fold induction” value [1] was 1.3, the “ERT3 gene expression, fold induction” value [1] was 1.0 and the “GluA gene expression, fold induction” value [1] was 0.6. For the same compound, the “Harp gene expression, fold induction” value [1] was 1.2, the “LOX gene expression, fold induction” value [1] was 1.5 and the “Osm2 gene expression, fold induction” value [1] was 2.9. For the same compound, the “PPO gene expression, fold induction” value [1] was 1.7, the “PR1 gene expression, fold induction” value [1] was 2.0 and the “PinII gene expression, fold induction” value [1] was 5.8. The “Sub1 gene expression, fold induction” value [1] was 0.9, the “Tas14 gene expression, fold induction” value [1] was 3.5 and the “Number of defense-related genes significantly induced” value [1] was 3. The “Defense gene expression in tomato plants (genes overexpressed)” value (“Defense gene expression in tomato plants” for short) [1] was “PinII, Osm2 and Tas14”, the metabolised at 1 h, 50 μg/mL (proteinase K) was 45% and the “Size of the lesions in infiltrated tobacco leaves (diameter)” value (“Size of the lesions” for short) (tobacco leaves) was 13.2 ± 4.7 mm. The “Reaction observed in the area of infiltration of tobacco leaves” value (tobacco leaves; in contrast to melittin) was “not a typical necrosis”.
With `CCCC(=O)NCCCC[C@H](NC(=O)[C@H](CCCCN)NC(C)=O)C(=O)N[C@@H](CC(C)C)C(=O)N[C@@H](Cc1ccccc1)C(=O)N[C@@H](CCCCN)C(=O)N[C@@H](CCCCN)C(=O)N[C@H](C(=O)N[C@@H](CC(C)C)C(=O)N[C@@H](CCCCN)C(=O)N[C@@H](Cc1ccc(O)cc1)C(=O)N[C@@H](CC(C)C)C(N)=O)[C@@H](C)CC` [BP381, Ac-KK(COC3H7)LFKKILKYL-NH2] the “BCB gene expression, fold induction” value [1] was 1.2, the “ERT3 gene expression, fold induction” value [1] was 0.7 and the “GluA gene expression, fold induction” value [1] was 0.6. For the same compound, the “Harp gene expression, fold induction” value [1] was 0.7, the “LOX gene expression, fold induction” value [1] was 0.8 and the “Osm2 gene expression, fold induction” value [1] was 2.1. The “PPO gene expression, fold induction” value [1] was 1.3, the “PR1 gene expression, fold induction” value [1] was 0.2 and the “PinII gene expression, fold induction” value [1] was 0.4. For the same compound, the “Sub1 gene expression, fold induction” value [1] was 0.5, the “Tas14 gene expression, fold induction” value [1] was 3.4 and the “Defense gene expression in tomato plants” value [1] was “one gene (Osm2, Tas14 or BCB) and Osm2”. The metabolised at 1 h, 50 μg/mL (proteinase K) was 53% and the “Size of the lesions” value (tobacco leaves) was 10.8 ± 1.9 mm.
With `CCCC(=O)NCCCC[C@H](NC(=O)[C@H](CCCCN)NC(=O)[C@H](CC(C)C)NC(=O)[C@@H](NC(=O)[C@H](CCCCN)NC(=O)[C@H](CCCCN)NC(=O)[C@H](Cc1ccccc1)NC(=O)[C@H](CC(C)C)NC(=O)[C@H](CCCCN)NC(=O)[C@H](CCCCN)NC(C)=O)[C@@H](C)CC)C(=O)N[C@@H](CC(C)C)C(N)=O` [BP389, Ac-KKLFKKILKK(COC3H7)L-NH2] the “BCB gene expression, fold induction” value [1] was 2.1, the “ERT3 gene expression, fold induction” value [1] was 0.1 and the “GluA gene expression, fold induction” value [1] was 0.3. The “Harp gene expression, fold induction” value [1] was 0.9, the “LOX gene expression, fold induction” value [1] was 1.2 and the “Osm2 gene expression, fold induction” value [1] was 1.0. The “PPO gene expression, fold induction” value [1] was 0.5, the “PR1 gene expression, fold induction” value [1] was 0.3 and the “PinII gene expression, fold induction” value [1] was 2.8. For the same compound, the “Sub1 gene expression, fold induction” value [1] was 0.5, the “Tas14 gene expression, fold induction” value [1] was 0.7 and the “Number of defense-related genes significantly induced” value [1] was 2. For the same compound, the “Defense gene expression in tomato plants” value [1] was “PinII and BCB”, the metabolised at 1 h, 50 μg/mL (proteinase K) was 29% and the “Size of the lesions” value (tobacco leaves) was 9.0 ± 2.9 mm.
